Data on one molecule can be found in patent publication US20080166805A1, “Culturing human cells and tissues in an N-glycolylneuraminic acid-free environment” (The Regents of the University of California, priority 2005, published 2008).

Format in all cases: cell-based
Experiment [1] relates to normal human skin fibroblasts (WT). Kind of experiment: Neu5Gc/ManNGc feeding experiment, normal human skin fibroblasts. Particulars: normal wild-type (WT) fibroblasts fed 3 mM for 3 days. On the procedure:
Cell Culture—Caco-2 cells were propagated in alpha-MEM containing GLUTAMAX™ (Invitrogen, San Diego, Calif.) and a mixture of ribonucleosides and deoxyribonucleosides (Gibco/Invitrogen, San Diego, Calif.) supplemented with 20% FCS. All the fibroblast cell lines and CHO-K1 cells were cultured in the same media supplemented respectively with 15% non-heat inactivated FCS or 10% heat inactivated FCS. Chimpanzee Fred and human […] EBV-transformed lymphoblasts were cultured in RPMI-1640 (Gibco/Invitrogen, San Diego, Calif.) supplemented with 10% heat inactivated FCS or 15% human serum. All of the cultures were maintained at 37° C., 5% CO2 atmosphere. In order to deplete any remaining Neu5Gc from FCS, the cells were split and cultured prior to Neu5Gc feeding experiments for at least 4 days in alpha-MEM supplemented with an adequate percentage of heat-inactivated premium human serum instead of FCS. The cells were then maintained under the same conditions during the whole feeding experiment. The human serum was heat inactivated at 56° C. for 30 min. before use.
Neu5Gc and ManNGc Feeding Experiment—Neu5Ac, Neu5Gc or ManNGc were dried, dissolved in the appropriate media supplemented with heat-inactivated human serum, sterilized using a Spin-X® (Corning Inc., Corning, N.Y.) and then added to the cells. The pH of the media containing Sia was adjusted to neutrality using sterilized 1M NaOH before starting the feeding experiment. Cells were cultured in the presence of up to 3 mM free Sia or ManNGc for 1 or 3 days at 37° C. At the end of the feeding, cells were washed with cold PBS, harvested either by scraping or with 2 mM EDTA for fibroblasts, and washed again with cold PBS prior to fractionation.
Fractionation of the Labeled Cells—Washed cell pellets were sonicated into 500 μL of 20 mM sodium phosphate buffer or 20 mM Tris-HCl, pH 7.5, using 4×15 second pulses of a sonicator cell disrupter, model Some Dismembrator (Fisher Scientific, Hampton, N.J.) at a probe setting of 3. The sonicate was centrifuged at 75×g for 15 min., and the pellet obtained consisted primarily of nuclei and unbroken cells. The pellet contained <5% of the incorporated sialic acid as determined using a radioactive tracer (data not shown.) The supernatant was therefore considered as the “total homogenate” fraction. A portion (20%) of the “total homogenate” fraction was taken for protein quantification and Sia analysis by DMB derivatization and HPLC analysis (as discussed below.) The remainder was centrifuged at 100,000×g for 1 h. The resulting pellet, called the “membrane” fraction, was then resuspended by sonication (15 sec.) in 200 μl of sodium acetate buffer, pH 5.5. The 100,000×g supernatant, called the “soluble” fraction was adjusted to 90% ethanol using absolute ice-cold ethanol, and placed overnight at −20° C. The flocculant precipitate, which represents the “soluble protein” fraction, was washed 3 times with 90% ice-cold ethanol and then resuspended in 200 μl of water. […] All the Sias in these fractions were released with mild acid hydrolysis if necessary and then analyzed by HPLC after DMB derivatization. Protein quantification was performed on the total homogenate, membrane and soluble protein fractions by using the BCA protein assay kit from Pierce (Rockford, Ill.) In some experiments, the resulting data obtained for the Sia bound to the membrane fraction and to the soluble proteins were pooled and presented here as a High Molecular Weight (HMW) fraction. […]

Experiment [2] relates to lysosomal sialic acid transporter mutant human fibroblasts (GM05520). Kind of experiment: Neu5Gc/ManNGc feeding, lysosomal sialic acid transporter mutant fibroblasts GM05520. Particulars: GM05520 (ISSD) fibroblasts fed 3 mM for 3 days. The source says:
(§1) Cell Lines—Caco-2 cells (human epithelial cells isolated from a primary colon carcinoma), normal human skin fibroblasts (CCD-919-SK) and chinese hamster ovary (CHO-K1) cells were purchased from ATCC (Manassas, Va.) Mutant human skin fibroblasts (GM05520, GM08496 and GM01718) were obtained from the Coriell Institute for Medical Research (Camden, N.J.) Chimpanzee Fred and human […] EBV-transformed lymphoblasts were a gift from Dr. Peter Parham, Stanford University, CA. […]
(§2) Fractionation of the Labeled Cells—Washed cell pellets were sonicated into 500 μL of 20 mM sodium phosphate buffer or 20 mM Tris-HCl, pH 7.5, using 4×15 second pulses of a sonicator cell disrupter, model Some Dismembrator (Fisher Scientific, Hampton, N.J.) at a probe setting of 3. […] The pellet contained <5% of the incorporated sialic acid as determined using a radioactive tracer (data not shown.) The supernatant was therefore considered as the “total homogenate” fraction. A portion (20%) of the “total homogenate” fraction was taken for protein quantification and Sia analysis by DMB derivatization and HPLC analysis (as discussed below.) The remainder was centrifuged at 100,000×g for 1 h. […] All the Sias in these fractions were released with mild acid hydrolysis if necessary and then analyzed by HPLC after DMB derivatization. […]

Experiment [3] deals with lysosomal sialic acid transporter mutant human fibroblasts (GM08496). The experiment is described as follows: Neu5Gc/ManNGc feeding, lysosomal sialic acid transporter mutant fibroblasts GM08496. As to conditions: GM08496 (Salla disease) fibroblasts fed 3 mM for 3 days.
Text: as §1, §2

For `O=C(CO)N[C@@H]1C(O)O[C@H](CO)[C@@H](O)[C@@H]1O` (stereo partly drawn) [ManNGc, N-glycolylmannosamine], in experiment [1], the “percent of Neu5Gc incorporation into membrane-bound glycoconjugates” value was determined as 19%. Further, the results for the “percent of Neu5Gc in membrane-bound glycoconjugates” value in experiment [2] and in experiment [3] were 18% and 17%, respectively.
